Measurements reported in PubChem BioAssay (NCI).
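Growth conditions: 96-well plates. Treatment: test compound, 48 hours, 5 concentrations. Analysis: linear interpolation between bracketing concentrations; unreached endpoints set to highest concentration. GI50 = concentration required for 50% inhibition of growth. The concentration for full growth arrest is given as TGI.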

Assays:
Test in all cases: DTP human tumour cell line panel, 48 h; in the data active = GI50 below about 0.43 µM; inactive = the rest
[1] = tested on: NCI-H522 lung
[2] = tested on: MCF7 breast
[3] = tested on: SK-MEL-2 melanoma
[4] = tested on: UACC-62 melanoma
[5] = tested on: SK-MEL-28 melanoma
[6] = tested on: K-562 leukemia
[7] = tested on: M14 melanoma
[8] = tested on: SNB-75 CNS
[9] = tested on: BT-549 breast
[10] = tested on: MOLT-4 leukemia
[11] = tested on: OVCAR-5 ovarian
[12] = tested on: UACC-257 melanoma
[13] = tested on: SK-OV-3 ovarian
[14] = tested on: RXF 393 renal
[15] = tested on: MDA-MB-231 breast
[16] = tested on: LOX IMVI melanoma
[17] = tested on: NCI-H226 lung
[18] = tested on: HCT-15 colon
[19] = tested on: RPMI-8226 leukemia
[20] = tested on: OVCAR-3 ovarian
[21] = tested on: MDA-MB-435
[22] = tested on: KM12 colon
[23] = tested on: ACHN renal
[24] = tested on: SN12C renal
[25] = tested on: OVCAR-8 ovarian
[26] = tested on: MALME-3M melanoma
[27] = tested on: SF-539 CNS
[28] = tested on: HCT-116 colon

COc1ccc(-n2nnnc2-c2c[nH]c3c(F)cc(F)cc23)cc1
inactive: GI50 [1] 86 µM | GI50 [2] > 100 µM | GI50 [3] > 100 µM | GI50 [4] > 100 µM | GI50 [5] > 100 µM | GI50 [6] > 100 µM | GI50 [7] > 100 µM | GI50 [8] 24.3 µM | GI50 [9] > 100 µM | GI50 [10] > 100 µM | GI50 [11] > 100 µM | GI50 [12] > 100 µM | GI50 [13] 34.7 µM | GI50 [14] 16.2 µM | GI50 [15] 27.1 µM | GI50 [16] 86.6 µM | GI50 [17] > 100 µM | GI50 [18] > 100 µM | GI50 [19] > 100 µM | GI50 [20] > 100 µM | GI50 [21] > 100 µM | GI50 [22] > 100 µM | GI50 [23] > 100 µM | GI50 [24] 86.3 µM | GI50 [25] 39.6 µM | GI50 [26] > 100 µM | GI50 [27] 52.8 µM | GI50 [28] > 100 µM
76.9 µM: TGI [8]
45.4 µM: TGI [14]
> 100 µM: TGI [1] | TGI [2] | TGI [3] | TGI [4] | TGI [5] | TGI [6] | TGI [7] | TGI [9] | TGI [10] | TGI [11] | TGI [12] | TGI [13] | TGI [15] | TGI [16] | TGI [17] | TGI [18] | TGI [19] | TGI [20] | TGI [21] | TGI [22] | TGI [23] | TGI [24] | TGI [25] | TGI [26] | TGI [27] | TGI [28]
